Results taken from US9567341B2, “Pyrrolopyrimidine derivatives as NR2B NMDA receptor antagonists” (Rugen Holdings (Cayman) Limited, priority 2014, dated 2017).
pIC50: −log10 of the molar value. Like-named read-outs stand apart in the source and are kept apart here.

Legend:
[1] = molecular target: human NR1/NR2B (Homo sapiens (Human), UniProt Q13224); assay: NR2B antagonist activity (Fluo-4 calcium influx assay); format: cell-based
[2] = molecular target: human NR1/NR2A (Homo sapiens (Human), UniProt Q05586+Q12879); assay: NR2A activity (Fluo-4 calcium influx assay); format: cell-based
[3] = molecular target: hERG channel (Homo sapiens (Human), UniProt Q12809); conditions: pH 7.35
[4] = system: Male mice (strain NLMN); assay: Forced swim test; format: in vivo, mouse; conditions: intraperitoneal, imipramine 32 mg/kg IP
[5] = molecular target: CYP2D6 (Homo sapiens (Human), UniProt P10635); assay: CYP P450 enzyme inhibition in pooled human liver microsome; conditions: read-out: CYP2D6 IC50, dextromethorphan 5 μM
[6] = system: Rats; assay: Electroconvulsive threshold (ECT) test; format: in vivo, rat; conditions: p.o. 60 minutes before ECS, theophylline 128 mg/kg, diazepam 16 mg/kg
[7] = HEK293 cells stably expressing human NR1/NR2B, glutamate 100 μM, glycine 50 μM, read-out: NR2B IC50
[8] = HEK293 cells stably expressing human NR1/NR2A, glutamate 100 μM, glycine 50 μM, read-out: NR2A IC50
[9] = as printed in the CYP2D6 table, read-out: NR2B IC50

Chain of human NR1/NR2A (Q12879 23-1464, other chains not shown): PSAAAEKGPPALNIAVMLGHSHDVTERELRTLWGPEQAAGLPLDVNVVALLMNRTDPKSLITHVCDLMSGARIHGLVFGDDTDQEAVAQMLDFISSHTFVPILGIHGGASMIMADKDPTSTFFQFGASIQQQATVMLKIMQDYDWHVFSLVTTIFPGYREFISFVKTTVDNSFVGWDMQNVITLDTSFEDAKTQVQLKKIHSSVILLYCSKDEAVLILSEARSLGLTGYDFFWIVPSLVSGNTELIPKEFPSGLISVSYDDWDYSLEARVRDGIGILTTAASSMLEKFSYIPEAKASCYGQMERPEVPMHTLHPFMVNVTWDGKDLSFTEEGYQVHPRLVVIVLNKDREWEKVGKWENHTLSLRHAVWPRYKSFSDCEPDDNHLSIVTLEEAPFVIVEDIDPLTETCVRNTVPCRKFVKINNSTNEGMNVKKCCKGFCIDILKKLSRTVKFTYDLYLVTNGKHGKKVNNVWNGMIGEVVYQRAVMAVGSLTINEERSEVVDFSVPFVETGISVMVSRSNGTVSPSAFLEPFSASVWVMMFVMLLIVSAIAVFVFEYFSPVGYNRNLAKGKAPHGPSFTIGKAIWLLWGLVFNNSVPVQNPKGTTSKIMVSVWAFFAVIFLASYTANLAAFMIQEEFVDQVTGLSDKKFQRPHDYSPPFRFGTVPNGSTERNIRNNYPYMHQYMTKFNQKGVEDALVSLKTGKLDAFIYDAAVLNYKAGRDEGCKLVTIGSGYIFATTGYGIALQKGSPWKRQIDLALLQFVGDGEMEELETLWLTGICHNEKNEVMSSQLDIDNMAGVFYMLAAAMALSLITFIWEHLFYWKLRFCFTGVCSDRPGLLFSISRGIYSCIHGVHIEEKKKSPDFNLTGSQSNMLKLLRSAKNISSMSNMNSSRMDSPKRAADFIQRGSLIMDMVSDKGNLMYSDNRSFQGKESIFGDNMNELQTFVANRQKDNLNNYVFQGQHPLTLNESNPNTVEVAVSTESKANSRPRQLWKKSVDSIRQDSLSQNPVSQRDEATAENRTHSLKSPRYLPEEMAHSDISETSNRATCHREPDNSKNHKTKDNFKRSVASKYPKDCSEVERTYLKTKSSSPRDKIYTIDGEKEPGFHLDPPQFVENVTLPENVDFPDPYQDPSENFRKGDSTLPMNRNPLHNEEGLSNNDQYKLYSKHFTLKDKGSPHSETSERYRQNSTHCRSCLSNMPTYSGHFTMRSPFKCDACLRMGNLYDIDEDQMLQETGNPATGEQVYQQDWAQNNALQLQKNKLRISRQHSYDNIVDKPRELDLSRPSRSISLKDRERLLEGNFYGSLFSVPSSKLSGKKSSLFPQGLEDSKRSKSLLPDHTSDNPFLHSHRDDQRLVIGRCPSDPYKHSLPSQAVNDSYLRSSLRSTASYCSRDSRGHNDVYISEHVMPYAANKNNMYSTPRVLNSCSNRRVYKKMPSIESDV
Chain of CYP2D6 (P10635 whole entry): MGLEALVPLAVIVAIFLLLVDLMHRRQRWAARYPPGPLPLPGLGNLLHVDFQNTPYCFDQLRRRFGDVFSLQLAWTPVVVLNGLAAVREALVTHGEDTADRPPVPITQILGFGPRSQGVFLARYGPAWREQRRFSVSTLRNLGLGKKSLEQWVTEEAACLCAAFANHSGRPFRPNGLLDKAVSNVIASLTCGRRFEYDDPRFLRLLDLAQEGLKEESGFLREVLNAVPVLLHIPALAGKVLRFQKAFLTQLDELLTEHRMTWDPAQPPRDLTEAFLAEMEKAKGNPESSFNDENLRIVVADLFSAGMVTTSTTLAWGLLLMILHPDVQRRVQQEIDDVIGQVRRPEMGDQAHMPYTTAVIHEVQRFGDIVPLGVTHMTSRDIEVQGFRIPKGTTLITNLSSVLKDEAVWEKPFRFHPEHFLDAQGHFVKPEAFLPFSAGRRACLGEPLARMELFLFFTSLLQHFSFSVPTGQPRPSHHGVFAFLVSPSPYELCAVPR
Chain of hERG channel (Q12809 whole entry): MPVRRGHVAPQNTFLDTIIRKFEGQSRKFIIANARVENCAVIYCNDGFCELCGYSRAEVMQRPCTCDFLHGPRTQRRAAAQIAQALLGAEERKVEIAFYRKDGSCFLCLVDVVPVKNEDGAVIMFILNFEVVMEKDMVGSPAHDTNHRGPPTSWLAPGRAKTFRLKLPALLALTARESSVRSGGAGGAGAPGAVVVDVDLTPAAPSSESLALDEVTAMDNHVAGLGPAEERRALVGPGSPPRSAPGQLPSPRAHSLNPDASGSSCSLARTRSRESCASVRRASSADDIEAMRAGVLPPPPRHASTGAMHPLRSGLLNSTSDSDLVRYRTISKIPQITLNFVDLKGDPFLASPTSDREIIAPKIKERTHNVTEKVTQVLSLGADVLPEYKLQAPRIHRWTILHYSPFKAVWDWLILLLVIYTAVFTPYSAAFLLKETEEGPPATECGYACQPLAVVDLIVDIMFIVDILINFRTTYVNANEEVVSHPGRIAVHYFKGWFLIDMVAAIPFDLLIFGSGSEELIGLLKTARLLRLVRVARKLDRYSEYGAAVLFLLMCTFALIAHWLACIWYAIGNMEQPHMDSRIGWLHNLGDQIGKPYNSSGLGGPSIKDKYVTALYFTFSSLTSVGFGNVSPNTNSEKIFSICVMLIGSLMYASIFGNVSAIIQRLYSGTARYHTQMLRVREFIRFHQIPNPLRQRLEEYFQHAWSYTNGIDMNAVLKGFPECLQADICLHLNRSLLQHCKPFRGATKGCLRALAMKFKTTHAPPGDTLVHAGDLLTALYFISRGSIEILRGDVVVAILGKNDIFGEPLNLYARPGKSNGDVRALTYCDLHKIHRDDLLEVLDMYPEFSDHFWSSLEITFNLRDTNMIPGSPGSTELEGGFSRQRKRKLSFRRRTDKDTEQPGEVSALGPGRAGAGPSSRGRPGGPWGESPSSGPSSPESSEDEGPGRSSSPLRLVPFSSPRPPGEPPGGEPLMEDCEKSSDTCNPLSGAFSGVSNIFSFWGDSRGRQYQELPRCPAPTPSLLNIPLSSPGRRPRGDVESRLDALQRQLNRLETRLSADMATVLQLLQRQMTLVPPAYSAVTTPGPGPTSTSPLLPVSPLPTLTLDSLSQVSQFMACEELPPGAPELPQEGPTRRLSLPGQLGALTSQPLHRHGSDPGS
Chain of human NR1/NR2B (Q13224 27-1484, other chains not shown): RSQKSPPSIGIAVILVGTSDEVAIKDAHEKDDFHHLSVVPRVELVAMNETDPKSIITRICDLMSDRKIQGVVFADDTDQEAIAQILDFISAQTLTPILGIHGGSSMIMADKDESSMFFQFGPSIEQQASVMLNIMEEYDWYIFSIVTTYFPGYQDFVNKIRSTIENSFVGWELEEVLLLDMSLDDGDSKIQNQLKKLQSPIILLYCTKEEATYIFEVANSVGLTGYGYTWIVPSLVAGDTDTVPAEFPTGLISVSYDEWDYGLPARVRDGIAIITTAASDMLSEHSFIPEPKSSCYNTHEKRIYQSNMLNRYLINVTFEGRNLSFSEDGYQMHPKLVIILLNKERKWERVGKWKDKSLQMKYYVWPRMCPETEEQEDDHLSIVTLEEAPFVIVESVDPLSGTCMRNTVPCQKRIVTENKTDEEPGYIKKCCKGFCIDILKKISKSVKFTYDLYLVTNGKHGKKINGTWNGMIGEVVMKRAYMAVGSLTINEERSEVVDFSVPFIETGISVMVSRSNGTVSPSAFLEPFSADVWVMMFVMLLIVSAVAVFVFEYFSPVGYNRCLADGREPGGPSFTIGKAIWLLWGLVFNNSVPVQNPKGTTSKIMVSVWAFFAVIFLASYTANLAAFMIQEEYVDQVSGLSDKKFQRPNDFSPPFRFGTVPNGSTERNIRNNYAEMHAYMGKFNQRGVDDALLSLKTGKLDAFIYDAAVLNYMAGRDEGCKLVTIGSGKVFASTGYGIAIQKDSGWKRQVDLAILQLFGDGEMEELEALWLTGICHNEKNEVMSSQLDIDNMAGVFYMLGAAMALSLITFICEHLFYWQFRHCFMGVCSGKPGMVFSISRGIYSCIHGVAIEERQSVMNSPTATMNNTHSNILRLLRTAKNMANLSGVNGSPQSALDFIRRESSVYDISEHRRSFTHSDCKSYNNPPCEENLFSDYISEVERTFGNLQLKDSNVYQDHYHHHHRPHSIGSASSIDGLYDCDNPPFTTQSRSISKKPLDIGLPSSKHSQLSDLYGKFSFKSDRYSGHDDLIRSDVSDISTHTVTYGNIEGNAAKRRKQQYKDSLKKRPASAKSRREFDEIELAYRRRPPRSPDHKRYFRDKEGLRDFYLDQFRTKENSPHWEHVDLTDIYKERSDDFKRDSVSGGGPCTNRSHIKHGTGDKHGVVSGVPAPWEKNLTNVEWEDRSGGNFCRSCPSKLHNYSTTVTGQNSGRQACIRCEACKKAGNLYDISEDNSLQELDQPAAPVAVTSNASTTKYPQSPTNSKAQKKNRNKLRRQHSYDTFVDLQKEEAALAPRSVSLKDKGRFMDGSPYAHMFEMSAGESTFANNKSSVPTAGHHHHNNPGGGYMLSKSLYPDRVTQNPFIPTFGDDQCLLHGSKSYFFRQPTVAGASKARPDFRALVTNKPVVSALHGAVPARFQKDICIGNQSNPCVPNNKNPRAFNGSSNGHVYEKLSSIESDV

Compound: FC(F)(CN1CCC(Nc2ncnc3[nH]ccc23)CC1)c1ccc(Cl)cc1 [Compound C-176, N-(1-(2-(4-chlorophenyl)-2,2-difluoroethyl)piperidin-4-yl)-7H-pyrrolo[2,3-d]pyrimidin-4-amine]
- pIC50 ([1]; read-out: NR2B IC50): 7.59
- pIC50 [2]: < 5.00

Compound: FC(F)(F)Oc1ccc(C(F)(F)CN2CCC(Nc3ncnc4[nH]ccc34)CC2)nc1 [Compound C-11, N-(1-(2,2-difluoro-2-(5-(trifluoromethoxy)pyridin-2-yl)ethyl)piperidin-4-yl)-7H-pyrrolo[2,3-d]pyrimidin-4-amine]
- pIC50 [1, 7]: 7.37

Compound: Cc1ccc(C(F)(F)CN2CCC(Nc3ncnc4[nH]ccc34)CC2)cn1 [Compound C-128, N-(1-(2,2-difluoro-2-(6-methylpyridin-3-yl)ethyl)piperidin-4-yl)-7H-pyrrolo-[2,3-d]pyrimidin-4-amine]
- pIC50 ([1]; read-out: NR2B IC50): 7.05
- pIC50 ([1]; read-out: hNR2B IC50): 7.05
- pIC50 [2]: < 5.00
- pIC50 [3]: 4.55

Compound: Fc1ccc(C(F)(F)CN2CCC(Nc3ncnc4[nH]ccc34)CC2)nc1 [Compound C-2, N-(1-(2,2-difluoro-2-(5-fluoropyridin-2-yl)ethyl)piperidin-4-yl)-7H-pyrrolo[2,3-d]-pyrimidin-4-amine]
- pIC50 ([1]; read-out: NR2B IC50): 6.91
- pIC50 [2]: < 5.00

Compound: Cc1ccc(C(F)(F)CN2CCC(Nc3ncnc4[nH]ccc34)CC2)nc1 [Compound C-4, N-(1-(2,2-difluoro-2-(5-methylpyridin-2-yl)ethyl)piperidin-4-yl)-7H-pyrrolo[2,3-d]pyrimidin-4-amine]
- pIC50 ([1]; read-out: NR2B IC50): 7.46
- pIC50 ([1]; read-out: hNR2B IC50): 7.46
- pIC50 [2]: < 5.00
- pIC50 [3]: 4.94

Compound: Fc1cc(C(F)(F)F)cnc1C(F)(F)CN1CCC(Nc2ncnc3[nH]ccc23)CC1 [Compound C-18, N-(1-(2,2-difluoro-2-(3-fluoro-5-(trifluoromethyl)pyridin-2-yl)-ethyl)piperidin-4-yl)-7H-pyrrolo[2,3-d]pyrimidin-4-amine]
- pIC50 [1, 7]: 7.08

Compound: CN(C)CCCN1c2ccccc2CCc2ccccc21 [imipramine]
- antidepressant activity (immobility time) [4]: expected antidepressant activity

Compound: FC(F)c1ccc(C(F)(F)CN2CCC(Nc3ncnc4[nH]ccc34)CC2)cc1 [Compound C-179, N-(1-(2-(4-(difluoromethyl)phenyl)-2,2-difluoroethyl)piperidin-4-yl)-7H-pyrrolo[2,3-d]pyrimidin-4-amine]
- pIC50 [2, 8]: < 5.00
- pIC50 [5]: 5.31

Compound: Cc1ccc(C(F)(F)CN2CCC(N(C)c3ncnc4[nH]ccc34)CC2)nc1 [Compound C-47, N-(1-(2,2-difluoro-2-(5-methylpyridin-2-yl)ethyl)piperidin-4-yl)-N-methyl-7H-pyrrolo[2,3-d]pyrimidin-4-amine]
- pIC50 ([1]; read-out: NR2B IC50): 6.85
- pIC50 [2]: < 5.00

Compound: FC(F)(CN1CCC(Nc2ncnc3[nH]ccc23)CC1)c1ccc(Cl)cn1 [Compound C-3, N-(1-(2-(5-chloropyridin-2-yl)-2,2-difluoroethyl)piperidin-4-yl)-7H-pyrrolo-[2,3-d]pyrimidin-4-amine]
- pIC50 [2]: < 5.00
- pIC50 [3]: 5.15
- pIC50 [5]: 4.92

Compound: Fc1ccc(C(F)(F)CN2CCC(Nc3ncnc4[nH]ccc34)CC2)cc1 [Compound C-175, N-(1-(2,2-difluoro-2-(4-fluorophenyl)ethyl)piperidin-4-yl)-7H-pyrrolo[2,3-d]-pyrimidin-4-amine]
- pIC50 ([1]; read-out: NR2B IC50): 7.66
- pIC50 ([1]; read-out: hNR2B IC50): 7.66
- pIC50 [2]: < 5.00
- pIC50 [3]: 5.35
- pIC50 [5]: 5.64

Compound: Fc1cc(Cl)cnc1C(F)(F)CN1CCC(Nc2ncnc3[nH]ccc23)CC1 [Compound C-16, N-(1-(2-(5-chloro-3-fluoropyridin-2-yl)-2,2-difluoroethyl)piperidin-4-yl)-7H-pyrrolo[2,3-d]pyrimidin-4-amine]
- pIC50 ([1]; read-out: NR2B IC50): 7.33
- pIC50 [2]: < 5.00

Compound: FCc1ccc(C(F)(F)CN2CCC(Nc3ncnc4[nH]ccc34)CC2)nc1 [Compound C-7, N-(1-(2,2-difluoro-2-(5-(fluoromethyl)pyridin-2-yl)ethyl)piperidin-4-yl)-7H-pyrrolo[2,3-d]pyrimidin-4-amine]
- pIC50 ([1]; read-out: NR2B IC50): 7.85
- pIC50 [2]: < 5.00

Compound: FC(F)(F)c1ccc(C(F)(F)CN2CCC(Nc3ncnc4[nH]ccc34)CC2)nc1 [Compound C-5, N-(1-(2,2-difluoro-2-(5-(trifluoromethyl)pyridin-2-yl)ethyl)piperidin-4-yl)-7H-pyrrolo[2,3-d]pyrimidin-4-amine]
- pIC50 [1, 7]: 7.52
- pIC50 [1, 9]: 7.52
- pIC50 ([1]; as printed in the hERG table, read-out: hNR2B IC50): 7.52
- pIC50 [3]: 5.02
- pIC50 [5]: 4.48

Compound: Cc1cnc(C(F)(F)CN2CCC(Nc3ncnc4[nH]ccc34)CC2)cn1 [Compound C-230, N-(1-(2,2-difluoro-2-(5-methylpyrazin-2-yl)ethyl)piperidin-4-yl)-7H-pyrrolo[2,3-d]pyrimidin-4-amine]
- pIC50 ([1]; read-out: NR2B IC50): 7.06
- pIC50 ([1]; read-out: hNR2B IC50): 7.06
- pIC50 [2]: < 5.00
- pIC50 [3]: 4.86

Compound: Cc1ccc(C(F)(F)CN2CCC(Nc3ncnc4[nH]ccc34)CC2)cc1 [Compound C-177, N-(1-(2,2-difluoro-2-p-tolylethyl)piperidin-4-yl)-7H-pyrrolo[2,3-d]-pyrimidin-4-amine]
- pIC50 ([1]; read-out: NR2B IC50): 7.57
- pIC50 [2]: < 5.00

Compound: Cc1cnc(C(F)(F)CN2CCC(Nc3ncnc4[nH]ccc34)CC2)c(F)c1 [Compound C-17, N-(1-(2,2-difluoro-2-(3-fluoro-5-methylpyridin-2-yl)ethyl)piperidin-4-yl)-7H-pyrrolo[2,3-d]pyrimidin-4-amine]
- pIC50 ([1]; read-out: NR2B IC50): 7.36
- pIC50 [2]: < 5.00

Compound: Cn1c(=O)c2[nH]cnc2n(C)c1=O [theophylline]
- pro-/anticonvulsant activity (electroconvulsive threshold) [6]: expected pro- and anticonvulsant activities

Compound: FC(F)c1ccc(C(F)(F)CN2CCC(Nc3ncnc4[nH]ccc34)CC2)nc1 [Compound C-6, N-(1-(2-(5-(difluoromethyl)pyridin-2-yl)-2,2-difluoroethyl)piperidin-4-yl)-7H-pyrrolo[2,3-d]pyrimidin-4-amine]
- pIC50 [1, 7]: 7.51

Compound: CN1C(=O)CN=C(c2ccccc2)c2cc(Cl)ccc21 [diazepam]
- pro-/anticonvulsant activity (electroconvulsive threshold) [6]: expected pro- and anticonvulsant activities

Compound: FC(F)(F)c1ccc(C(F)(F)CN2CCC(Nc3ncnc4[nH]ccc34)CC2)cc1 [Compound C-178, N-(1-(2,2-difluoro-2-(4-(trifluoromethyl)phenyl)ethyl)piperidin-4-yl)-7H-pyrrolo-[2,3-d]pyrimidin-4-amine]
- pIC50 [1, 7]: 7.19
- pIC50 [1, 9]: 7.19
- pIC50 [2, 8]: < 5.00
- pIC50 [5]: 5.17
